Data on three molecules can be found in patent US9603364B2 (Dow AgroSciences LLC, priority 2013, dated 2017).

SMILES strings stand for the structures.

Assay in all cases: General post-emergent herbicidal activity, foliar application
Type in all cases: in vivo

Assay [1] relates to Helianthus annuus L. (sunflower, common). As to conditions: for GR80 Value HELAN: calculated by probit analysis, dose for 80% visual injury, may be extrapolated. The procedure, abridged:
(§1)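 Compounds in acetone/DMSO (97:3) were diluted into aqueous spray containing isopropyl alcohol, Atplus 411F crop oil and Triton X-155, then applied post-emergence to foliage at a top rate plus 1/2× to 1/16× serial dilutions. Injury was scored visually (0–100%) after 14 days in a sub-irrigated greenhouse versus untreated plants. GR20/GR50/GR80 were derived by probit analysis, with some GR80 values extrapolated from curve slope.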

Assay [2] concerns Viola tricolor L. (pansy). As to conditions: for GR80 Value VIOTR: calculated by probit analysis, dose for 80% visual injury, may be extrapolated. The procedure, abridged: as §1
For assay [3], the system named is Echinochloa crus-galli (L.) Beauv. (barnyardgrass). As to conditions: for GR80 Value ECHCG: calculated by probit analysis, dose for 80% visual injury, may be extrapolated. The procedure, abridged:
as §1

In assay [4] the test system is Euphorbia heterophylla L. (poinsettia, wild). As to conditions: for GR80 Value EPHHL: calculated by probit analysis, dose for 80% visual injury, may be extrapolated. A digest of the protocol: as §1
Assay [5] concerns Chenopodium album L. (lambsquarters, common). As to conditions: for GR80 Value CHEAL: calculated by probit analysis, dose for 80% visual injury, may be extrapolated. The procedure, abridged:
as §1

Assay [6] has as its system Amaranthus retroflexus L. (pigweed, redroot). As to conditions: for GR80 Value AMARE: calculated by probit analysis, dose for 80% visual injury, may be extrapolated. The procedure, abridged: as §1
Assay [7] deals with Oryza sativa L. (rice). As to conditions: Oryza sativa, 336 h, scored after 14 days, read-out: % Visual Growth Reduction ORYSA. The procedure, abridged: (§2)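 Injury rated visually 14 days after treatment on a 0 (none) to 100% (complete kill) scale against untreated plants; greenhouse-grown, sub-irrigated to avoid wash-off. Foliar spray in aqueous acetone/DMSO with isopropanol, crop oil concentrate and Triton X-155, at a highest rate and 2-fold serial dilutions down to 1/16×.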

Assay [8] relates to Zea mays L. (corn). As to conditions: 336 h, scored after 14 days, read-out: % Visual Growth Reduction ZEAMX. The procedure, abridged: as §2

Regarding `COC(=O)c1nc(C(F)F)cc(N)c1Cl` [Compound F12, methyl 4-amino-3-chloro-6-(difluoromethyl)picolinate], the pest or weed control at 35 g/ha in assay [1] (Helianthus annuus, 336 h, 35 g ai/ha, foliar post-emergent, scored after 14 days, read-out: % Visual Growth Reduction HELAN) amounted to 100%; in assay [2] (Viola tricolor, 336 h, 35 g ai/ha, foliar post-emergent, scored after 14 days, read-out: % Visual Growth Reduction VIOTR) it was 90%; in assay [3] (Echinochloa crus-galli, 336 h, 35 g ai/ha, foliar post-emergent, scored after 14 days, read-out: % Visual Growth Reduction ECHCG), 0%; in assay [4] (Euphorbia heterophylla, 336 h, 35 g ai/ha, foliar post-emergent, scored after 14 days, read-out: % Visual Growth Reduction EPHHL) it was 90%; in assay [5] (Chenopodium album, 336 h, 35 g ai/ha, foliar post-emergent, scored after 14 days, read-out: % Visual Growth Reduction CHEAL), 90%; in assay [6] (Amaranthus retroflexus, 336 h, 35 g ai/ha, foliar post-emergent, scored after 14 days, read-out: % Visual Growth Reduction AMARE), 80%. The pest or weed control at 70 g/ha in assay [1] (Helianthus annuus, 336 h, 70 g ai/ha, foliar post-emergent, scored after 14 days, read-out: % Visual Growth Reduction HELAN) is 100%; in assay [2] (Viola tricolor, 336 h, 70 g ai/ha, foliar post-emergent, scored after 14 days, read-out: % Visual Growth Reduction VIOTR) it was 100%; in assay [3] (Echinochloa crus-galli, 336 h, 70 g ai/ha, foliar post-emergent, scored after 14 days, read-out: % Visual Growth Reduction ECHCG), 0%; in assay [4] (Euphorbia heterophylla, 336 h, 70 g ai/ha, foliar post-emergent, scored after 14 days, read-out: % Visual Growth Reduction EPHHL), 100%; in assay [5] (Chenopodium album, 336 h, 70 g ai/ha, foliar post-emergent, scored after 14 days, read-out: % Visual Growth Reduction CHEAL), 100%; in assay [6] (Amaranthus retroflexus, 336 h, 70 g ai/ha, foliar post-emergent, scored after 14 days, read-out: % Visual Growth Reduction AMARE), 100%. For the same molecule, the pest or weed control at 140 g/ha in assay [1] (Helianthus annuus, 336 h, 140 g ai/ha, foliar post-emergent, scored after 14 days, read-out: % Visual Growth Reduction HELAN) was determined as 100%; in assay [2] (Viola tricolor, 336 h, 140 g ai/ha, foliar post-emergent, scored after 14 days, read-out: % Visual Growth Reduction VIOTR), 100%; in assay [3] (Echinochloa crus-galli, 336 h, 140 g ai/ha, foliar post-emergent, scored after 14 days, read-out: % Visual Growth Reduction ECHCG), 55%; in assay [4] (Euphorbia heterophylla, 336 h, 140 g ai/ha, foliar post-emergent, scored after 14 days, read-out: % Visual Growth Reduction EPHHL) it was 100%; in assay [5] (Chenopodium album, 336 h, 140 g ai/ha, foliar post-emergent, scored after 14 days, read-out: % Visual Growth Reduction CHEAL) it was 100%; in assay [6] (Amaranthus retroflexus, 336 h, 140 g ai/ha, foliar post-emergent, scored after 14 days, read-out: % Visual Growth Reduction AMARE) it was 100%. Moreover, the pest or weed control at 280 g/ha was 100% in assay [1] (Helianthus annuus, 336 h, 280 g ai/ha, foliar post-emergent, scored after 14 days, read-out: % Visual Growth Reduction HELAN); 100% in assay [2] (Viola tricolor, 336 h, 280 g ai/ha, foliar post-emergent, scored after 14 days, read-out: % Visual Growth Reduction VIOTR); 80% in assay [3] (Echinochloa crus-galli, 336 h, 280 g ai/ha, foliar post-emergent, scored after 14 days, read-out: % Visual Growth Reduction ECHCG); 100% in assay [4] (Euphorbia heterophylla, 336 h, 280 g ai/ha, foliar post-emergent, scored after 14 days, read-out: % Visual Growth Reduction EPHHL); 100% in assay [5] (Chenopodium album, 336 h, 280 g ai/ha, foliar post-emergent, scored after 14 days, read-out: % Visual Growth Reduction CHEAL); 100% in assay [6] (Amaranthus retroflexus, 336 h, 280 g ai/ha, foliar post-emergent, scored after 14 days, read-out: % Visual Growth Reduction AMARE). In assay [1], the “GR80 Value HELAN” value is recorded as 23.1 g ai/ha. Besides, the “GR80 Value VIOTR” value in assay [2] is reported as 29.2 g ai/ha. In assay [3], the “GR80 Value ECHCG” value was 249 g ai/ha. Besides, the “GR80 Value EPHHL” value in assay [4] was 29.2 g ai/ha. Besides, the “GR80 Value CHEAL” value in assay [5] is below 17.5 g ai/ha. The “GR80 Value AMARE” value in assay [6] was 26.8 g ai/ha. In addition, the plant injury at 35 g/ha in assay [7] (35 g ai/ha) worked out at 0%; in assay [8] (35 g ai/ha) it was 15%. In addition, the plant injury at 70 g/ha in assay [7] (70 g ai/ha) stood at 0%; in assay [8] (70 g ai/ha) it was 30%. Besides, the plant injury at 140 g/ha is 0% in assay [7] (140 g ai/ha) and 60% in assay [8] (140 g ai/ha). The plant injury at 280 g/ha in assay [7] (280 g ai/ha) stood at 8%; in assay [8] (280 g ai/ha), 70%.
Take `COC(=O)c1nc(C(C)CF)c(F)c(N)c1Cl` (stereo not drawn) [Compound F37, methyl 4-amino-3-chloro-5-fluoro-6-(1-fluoropropan-2-yl)picolinate]: the pest or weed control at 132 g/ha worked out at 80% in assay [1] (Helianthus annuus, 336 h, 132 g ai/ha, foliar post-emergent, scored after 14 days, read-out: % Visual Growth Reduction HELAN); 0% in assay [2] (Viola tricolor, 336 h, 132 g ai/ha, foliar post-emergent, scored after 14 days, read-out: % Visual Growth Reduction VIOTR); 0% in assay [3] (Echinochloa crus-galli, 336 h, 132 g ai/ha, foliar post-emergent, scored after 14 days, read-out: % Visual Growth Reduction ECHCG); 100% in assay [4] (Euphorbia heterophylla, 336 h, 132 g ai/ha, foliar post-emergent, scored after 14 days, read-out: % Visual Growth Reduction EPHHL); 0% in assay [5] (Chenopodium album, 336 h, 132 g ai/ha, foliar post-emergent, scored after 14 days, read-out: % Visual Growth Reduction CHEAL); 50% in assay [6] (Amaranthus retroflexus, 336 h, 132 g ai/ha, foliar post-emergent, scored after 14 days, read-out: % Visual Growth Reduction AMARE). For the same molecule, the plant injury at 132 g/ha in assay [7] (132 g ai/ha) and in assay [8] (132 g ai/ha) was 0% each time.
Take `COC(=O)c1nc(CCF)cc(N)c1Cl` [Compound F31, methyl 4-amino-3-chloro-6-(2-fluoroethyl)picolinate]: the pest or weed control at 180 g/ha in assay [1] (Helianthus annuus, 336 h, 180 g ai/ha, foliar post-emergent, scored after 14 days, read-out: % Visual Growth Reduction HELAN) worked out at 90%; in assay [2] (Viola tricolor, 336 h, 180 g ai/ha, foliar post-emergent, scored after 14 days, read-out: % Visual Growth Reduction VIOTR) it was 100%; in assay [3] (Echinochloa crus-galli, 336 h, 180 g ai/ha, foliar post-emergent, scored after 14 days, read-out: % Visual Growth Reduction ECHCG), 0%; in assay [4] (Euphorbia heterophylla, 336 h, 180 g ai/ha, foliar post-emergent, scored after 14 days, read-out: % Visual Growth Reduction EPHHL), 45%; in assay [5] (Chenopodium album, 336 h, 180 g ai/ha, foliar post-emergent, scored after 14 days, read-out: % Visual Growth Reduction CHEAL), 100%; in assay [6] (Amaranthus retroflexus, 336 h, 180 g ai/ha, foliar post-emergent, scored after 14 days, read-out: % Visual Growth Reduction AMARE), 15%. Further, the “GR80 Value HELAN” value in assay [1] was 42.4 g ai/ha. In addition, the “GR80 Value VIOTR” value in assay [2] is recorded as 74.4 g ai/ha. Further, the “GR80 Value ECHCG” value in assay [3] is given as above 180 g ai/ha. Further, the “GR80 Value EPHHL” value in assay [4] is below 17.5 g ai/ha. For the same molecule, the “GR80 Value CHEAL” value in assay [5] is recorded as 6.93 g ai/ha. Moreover, in assay [6], the “GR80 Value AMARE” value was below 17.5 g ai/ha. Moreover, the plant injury at 180 g/ha in assay [7] (180 g ai/ha) and in assay [8] (180 g ai/ha) was 0% throughout.
